# Laboratory results: article PMC4056445 (Journal of ethnopharmacology, 2011)
# How the values were obtained:
# PDE5 = PDE5 (Mus musculus, UniProt Q8CG03); assay: PDE5 inhibition, two-step radioactive [3H]cGMP assay; assay type: biochemical; details: for IC50 ratio PDE6/PDE5: pure compounds, selectivity on PDE5 over PDE6
# PDE6 = biological target: T1, PDE6 (Gallus gallus, UniProt P52731); assay: PDE6 inhibition, two-step radioactive [3H]cGMP assay; assay type: biochemical, chicken
# T1 sequence (P52731 1-859 limits assumed): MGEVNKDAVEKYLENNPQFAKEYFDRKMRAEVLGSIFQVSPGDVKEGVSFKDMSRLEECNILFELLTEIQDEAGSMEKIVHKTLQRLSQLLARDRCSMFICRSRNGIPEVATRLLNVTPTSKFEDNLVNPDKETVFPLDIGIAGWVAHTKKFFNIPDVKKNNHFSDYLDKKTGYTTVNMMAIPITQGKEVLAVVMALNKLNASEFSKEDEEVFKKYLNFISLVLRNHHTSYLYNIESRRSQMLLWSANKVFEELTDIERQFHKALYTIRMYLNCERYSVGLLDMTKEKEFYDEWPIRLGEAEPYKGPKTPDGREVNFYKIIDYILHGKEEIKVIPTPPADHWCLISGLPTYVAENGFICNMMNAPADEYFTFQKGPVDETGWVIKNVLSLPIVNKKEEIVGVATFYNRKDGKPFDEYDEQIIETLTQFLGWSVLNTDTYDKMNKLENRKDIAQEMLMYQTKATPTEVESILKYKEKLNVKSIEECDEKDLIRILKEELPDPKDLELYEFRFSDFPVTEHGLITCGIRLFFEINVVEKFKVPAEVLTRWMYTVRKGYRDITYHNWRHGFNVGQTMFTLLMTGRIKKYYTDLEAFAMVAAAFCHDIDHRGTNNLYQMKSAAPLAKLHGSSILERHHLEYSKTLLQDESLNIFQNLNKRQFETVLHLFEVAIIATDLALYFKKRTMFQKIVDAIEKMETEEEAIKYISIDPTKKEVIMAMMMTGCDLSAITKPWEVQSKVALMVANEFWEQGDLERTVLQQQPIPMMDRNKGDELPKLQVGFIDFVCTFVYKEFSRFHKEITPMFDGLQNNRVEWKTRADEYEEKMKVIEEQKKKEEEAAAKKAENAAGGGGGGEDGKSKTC
Structure (SMILES),IC50 (PDE5) [µM],IC50 ratio PDE6/PDE5 (PDE5),IC50 (PDE6) [µM],"inhibition at 10 µM (PDE5; read-out: % Inhibitory activity at 10 μM PDE5, final concentration 10 μM, n = 3) [%]","inhibition at 10 µM (PDE6; read-out: % Inhibitory activity at 10 μM PDE6, final concentration 10 μM, n = 3) [%]"
"CCCc1nn(C)c2c(=O)[nH]c(-c3cc(S(=O)(=O)N4CCN(C)CC4)ccc3OCC)nc12 [Sildenafil, sildenafil]",0.0068,4.85,0.033 ± 0.01,–,–
"COc1cc(OC)c2c(=O)cc(-c3ccccc3)oc2c1 [Compound 2, 5,7-dimethoxyflavone]",10.6 ± 2.09,3.71,39.5 ± 1,> 35,> 35
"OCCN(CCO)c1nc(N2CCCCC2)c2nc(N(CCO)CCO)nc(N3CCCCC3)c2n1 [Dipyridamole, dipyridamole]",1.46 ± 0.81,–,0.231 ± 0.03,–,–
